IC50 data for 1 compound are collected here from patent EP1222163B1, “2'-SUBSTITUTED 1,1'-BIPHENYL-2-CARBONAMIDES, METHOD FOR THE PRODUCTION THEREOF, USE THEREOF AS A MEDICAMENT AND PHARMACEUTICAL PREPARATIONS CONTAINING SAID COMPOUNDS” (Sanofi-Aventis Deutschland GmbH, priority 1999, dated 2001).

The target in the experiment is T1, Kv1.5-Kanäle aus dem Menschen (Homo sapiens, UniProt P22460).
T1 construct: expressed in transfected cells; host or cells: Xenopus laevis oocytes injected with in vitro synthesised Kv1.5-coding RNA
T1 sequence (P22460 whole entry): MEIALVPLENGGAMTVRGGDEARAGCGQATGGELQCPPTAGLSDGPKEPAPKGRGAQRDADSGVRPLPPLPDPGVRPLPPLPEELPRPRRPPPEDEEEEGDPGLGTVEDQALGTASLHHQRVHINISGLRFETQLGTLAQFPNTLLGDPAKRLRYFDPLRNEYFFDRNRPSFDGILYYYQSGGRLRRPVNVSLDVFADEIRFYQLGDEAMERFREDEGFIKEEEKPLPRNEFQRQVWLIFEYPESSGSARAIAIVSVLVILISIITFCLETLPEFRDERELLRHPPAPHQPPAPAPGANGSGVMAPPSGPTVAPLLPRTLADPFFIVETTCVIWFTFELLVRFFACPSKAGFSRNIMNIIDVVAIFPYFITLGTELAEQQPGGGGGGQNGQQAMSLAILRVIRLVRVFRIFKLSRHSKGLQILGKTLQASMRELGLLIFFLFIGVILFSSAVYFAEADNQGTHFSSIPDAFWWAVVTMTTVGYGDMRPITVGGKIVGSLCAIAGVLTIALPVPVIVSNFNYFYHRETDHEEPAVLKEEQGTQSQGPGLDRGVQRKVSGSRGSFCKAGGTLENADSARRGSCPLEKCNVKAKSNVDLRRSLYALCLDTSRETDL
The experiment in a line: Kv1.5 currents in Xenopus oocytes, two-microelectrode voltage clamp. The class given is cell-based.

Text: Kv1.5-Kanäle aus dem Menschen wurden in Xenopus Oozyten expremiert. Hierfür wurden zuerst Oozyten aus Xenopus laevis isoliert und defollikuliert. Anschließend wurde in diese Oozyten in vitro synthetisierte Kv1.5 kodierende RNA injiziert. Nach 1 - 7 Tagen Kv1.5-Proteinexpression wurden an den Oozyten mit der Zwei-Mikroelektroden Voltage-Clamp Technik Kv1.5-Ströme gemessen. Die Kv1.5-Kanäle wurden hierbei in der Regel mit 500 ms dauernden Spannungssprüngen auf 0 mV und 40 mV aktiviert. Das Bad wurde mit einer Lösung der nachfolgenden Zusammensetzung durchspült: NaCl 96 mM, KCl 2 mM, CaCl2 1,8 mM, MgCl2 1 mM, HEPES 5 mM (titriert mit NaOH auf pH 7,4). Diese Experimente wurden bei Raumtemperatur durchgeführt. Zur Datenerhebung und Analyse wurden eingesetzt: Geneclamp Verstärker (Axon Instruments, Foster City, USA) und MacLab D/A-Umwandler und Software (ADInstruments, Castle Hill, Australia). Die erfindungsgemäßen Substanzen wurden getestet, indem sie in unterschiedlichen Konzentrationen der Badlösung zugefügt wurden. Die Effekte der Substanzen wurden als prozentuale Inhibition des Kv1.5-Kontrollstromes berechnet, der erhalten wurde, wenn der Lösung keine Substanz zugesetzt wurde. Die Daten wurden anschließend mit der Hill-Gleichung extrapoliert, um die Hemmkonzentrationen IC50 für die jeweiligen Substanzen zu bestimmen.

The term IC50 denotes the midpoint of a concentration-inhibition curve. A lower IC50 goes with higher potency. `NC(=O)[C@H](Cc1ccccc1)NC(=O)c1ccccc1-c1ccccc1CNS(=O)(=O)c1cccc2cccnc12` [Beispiel 12 l] displayed an IC50 of 10.3 µM.
